Common to all, as to assay: DTP human tumour cell line panel, 48 h
Test [1] relates to SK-MEL-2 melanoma.
The test system of test [2] is KM12 colon.
Test [3] relates to HCT-15 colon.
For test [4], the system named is IGROV1 ovarian.
The subject of test [5] is OVCAR-3 ovarian.
Test [6] relates to SW-620 colon.
The subject of test [7] is HCT-116 colon.
In test [8] the test system is MOLT-4 leukemia.
Test [9] concerns MDA-N.
In test [10] the test system is BT-549 breast.
Test [11] concerns U251 CNS.
Test [12] concerns NCI-H522 lung.

Consider 9 compounds from PubChem BioAssay (NCI).

Each structure is given as a SMILES string.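 Dose response: 5 concentrations. Exposure: 48 h. Format: 96-well plates. Endpoint: linear interpolation; highest concentration if not reached. TGI: total growth inhibition.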

By TGI is commonly meant the concentration at which net growth stops. A low value points to more potent growth arrest. In the case of `COC(=N)C12C(N)=NC(OC)(OC)C1(C#N)C21C(=O)N(c2ccccc2)N=C1C` (stereo not drawn), the TGI in [1], in test [2], in test [3], in [4], in test [5] and in test [6] was greater than 100 µM each time. In addition, the TGI in test [7], in test [8], in test [9], in test [10], in test [11] and in [12] was greater than 100 µM in each case.

With `O=C1CC2(CCC(O)(c3ccc(Cl)cc3)C(C(=O)c3ccc(Cl)cc3)C2)C(=O)c2ccccc2N1` (stereo not drawn), the TGI in test [1] is greater than 100 µM; in test [2], greater than 100 µM; in [3], greater than 100 µM; in test [4], greater than 52.1 µM; in [5], greater than 100 µM; in [6], greater than 100 µM. For the same compound, the TGI in test [7] was greater than 100 µM; in test [8], 8.56 µM; in test [9], 98.1 µM; in test [10], 49.9 µM; in test [11], greater than 31.9 µM; in test [12], greater than 100 µM.

Take `CCCCCc1c2nc(c(CCCCC)c3ccc([nH]3)c(CCCCC)c3ccc([nH]3)c(CCCCC)c3nc1C=C3)C=C2`: the TGI in test [1], in test [2], in [3], in [4], in test [5] and in [6] was greater than 100 µM in each case. Also, the concentration for total growth inhibition (TGI) in [7], in test [8], in test [9], in test [10], in test [11] and in test [12] was greater than 100 µM throughout.

On to `O=c1c2cccnc2nc2ccc3c[nH][nH]c3c12`, for which the TGI in test [1], in [2], in test [3], in [4], in test [5] and in [6] was greater than 10 µM each time. In addition, the TGI in [7], in test [8], in test [9], in test [10], in test [11] and in [12] was greater than 10 µM each time.

`OC1CC(O)c2c(Cl)sc(Cl)c21` (stereo not drawn): the TGI is 49.4 µM in [1]; greater than 100 µM in test [2]; greater than 100 µM in [3]; greater than 100 µM in test [4]; 70.8 µM in [5]; greater than 100 µM in [6]. Besides, the TGI is greater than 100 µM in test [7]; greater than 100 µM in [8]; greater than 100 µM in [9]; greater than 100 µM in [10]; greater than 100 µM in test [11]; 56.8 µM in [12].

As to `COC(=O)C1(O)c2ccccc2N=C2C(=O)c3ccccc3N21` (stereo not drawn), the TGI in [1], in test [2], in test [3], in [4], in [5] and in test [6] was greater than 100 µM in each case. Moreover, the TGI in test [7] was greater than 100 µM; in test [8], greater than 100 µM; in test [9], 41.8 µM; in test [10], greater than 100 µM; in test [11], greater than 100 µM; in test [12], greater than 100 µM.

In the case of `O=[N+]([O-])C(=C(N1CCOCC1)N1CCOCC1)/C(Cl)=C(\Cl)[N+](=O)[O-]`, the TGI in test [1] worked out at 32.2 µM; in test [2], 30.9 µM; in [3], 8.18 µM; in test [4], 2.78 µM; in test [5], 13.5 µM; in [6], 5.27 µM. Further, the total growth inhibition concentration (TGI) in test [7] was 4.28 µM; in [8], greater than 100 µM; in test [9], 25.1 µM; in [10] it was 13.3 µM; in test [11] it was 37.8 µM; in test [12], 2.89 µM.

Turning to `CC1N(C)C(=O)OC12CCN(CCCC(=O)c1ccc(F)cc1)CC2` (stereo not drawn), the TGI in [1], in test [2], in test [3], in [4], in test [5] and in [6] was greater than 100 µM in each case. Further, the TGI in test [7], in [8], in test [9], in test [10], in [11] and in test [12] was greater than 100 µM throughout.

In the case of `Cc1ccccc1N(C)S(=O)(=O)c1ccccc1[N+](=O)[O-]`, the TGI in test [1], in [2], in test [3], in test [4], in test [5] and in test [6] was greater than 100 µM in each case. Moreover, the TGI in test [7], in test [8], in [9], in test [10], in [11] and in test [12] was greater than 100 µM in each case.
